These results are taken from PMC11568265, “Exploring peptide dendrimers for intestinal lymphatic targeting: formulation and evaluation of peptide dendrimer conjugated liposomes for enhancing the oral bioavailability of Asenapine maleate” (Scientific Reports, 2024).

Series [1] can be described thus: Ex vivo drug permeation, everted ileum sac model. The series is classed as in vitro ADME, Sprague–Dawley (SD) rats. To be noted: male, Sprague-Dawley, pH 7.4, everted rat ileum sac. How it is done: (§1) Preclinical ex vivo and in vivo studies were conducted on male Sprague–Dawley (SD) rats (200–250 g). The SD rats were bred at the Central Animal Research Facility, Manipal Academy of Higher Education, Manipal, India. The SD rats were exposed to a light–dark cycle (12 h each) and had free access to food and water. The rats used in the study were housed in cages at 25 ± 2 °C. All the experimental procedures and animal handling were carried out following the CCSEA (Committee for Control and Supervision of Experiments on Animals, Ministry of Fisheries, Animal Husbandry and Dairying, Government of India) guidelines, and in accordance with ARRIVE guidelines as well. All the animal experimental protocols were approved by the Institutional Animal Ethical Committee, Kasturba Medical College, MAHE, Manipal (Approval No: IAEC/KMC/49/2020). An attempt was made to use the minimum number of rats in an ethically responsible manner.
The absorption of the drug through the ileum portion of the small intestine was determined by an ex vivo drug permeation study using an everted ileum sac model. Overnight-fasted SD rats were sacrificed humanely, and the small intestine was isolated (≈ 10 cm). The isolated ileum segment was carefully everted and pushed completely over a capillary tube. The ileum was then tied between the cannulated parts of the U-shaped glass tube, which was used as a perfusion apparatus. The perfusion apparatus was then placed in a beaker containing 450 mL of Ringer’s solution (pH 7.4). The medium was stirred using magnetic beads at 100 rpm and 37 °C. Plain ASPM solution/liposomal dispersion was added to the beaker. The samples were withdrawn from the cannulated arm of the U tube at predetermined time points of 1, 2 and 3 h, and the same volume of the withdrawn sample was replaced by the addition of fresh Ringer’s solution. The amount of drug absorbed was calculated by analysing the samples using HPLC[22].

Details of series [2]: method as in PMID 30669881. To be noted: pure ASPM dispersion, intestinal fluid (phosphate buffer pH 6.8), within 180 min; cited from earlier work.
The conditions of series [3]: cited from earlier work.
Series [4] deals with Raji B cells. Further details: method as in PMID 30874464, PMID 32228915, doi:10.1016/j.jddst.2022.103275. The note with it: highest concentration of ASPM tested; cited from earlier work.
The test system of series [5] is L-DOPA-carbidopa-induced hyper locomotor activity. Description: Psychostimulant-induced hyperactivity model, locomotor activity (LMA) test. The note with it: L-DOPA-carbidopa-treated rats, ASPM dose 5 mg/kg p.o. The series is classed as in vivo, Sprague–Dawley (SD) rats. How it is done:
as §1
The pharmacodynamic study was performed using an induced locomotor activity (LMA) test with a psychostimulant-induced hyperactivity model. The ability of the optimized formulation to reverse hyperactivity in rats was studied. […] A digital Actophotometer (Ikon Instruments, New Delhi, India) was used to assess LMA at 5 min intervals at 1, 2 and 3 h. The LMA was assessed after 1 h of L-DOPA-carbidopa administration in group II. ASPM was administered after 30 min of L-DOPA-carbidopa administration, and LMA was noted after 30 min of ASPM administration in groups III, IV and V.

A short description of series [6]: Oral pharmacokinetic study in rats. The series is classed as in vivo, Sprague–Dawley (SD) rats. To be noted: SD rats, 5 mg/kg ASPM orally, n = 6. How it is done: as §1
Overnight-fasted SD rats were divided into 3 groups (n = 6). Group I, ASPM solution; Group II, LP-ASPM; Group III, LP-PD-2. All the groups received ASPM at a dose of 5 mg/kg body weight orally. Blood was drawn from the retro-orbital sinus at different time points between 0 and 48 h in tubes containing disodium EDTA. Blood was centrifuged at 5000 rpm for 10 min, and the clear plasma from the supernatant layer was collected and stored at -80 °C until analysis. The amount of ASPM in the samples was analysed by RP-HPLC. The detailed bioanalytical method development for the quantification of ASPM in rat plasma is given in Supplementary information; Section S3; Table S4; Figure S7. Pharmacokinetic parameters were calculated using PK Solutions 2.0™ (Summit Research Services, Montrose, Colorado).

For series [7], the system named is Caco-2 cells. Set-up: method as in PMID 30874464, PMID 32228915, doi:10.1016/j.jddst.2022.103275. The note with it: highest concentration of ASPM tested; cited from earlier work.
Where [8] appears, read: male, Sprague-Dawley, rat, plasma, po.

Each structure is given as a SMILES string. Counter-ions that a name gives are not always drawn. Marks after values point to notes of the source that are not given here. Some results are limits rather than exact numbers.

The Papp is a coefficient for how fast a substance crosses the barrier. Low values mean poor permeation, high ones ready permeation. Usually bioavailability stands for the share of a dose that reaches the circulation, judged against a reference dose that is usually intravenous. In general, half-life refers to the time in which the quantity being followed falls by half. Read a low half-life as rapid decline. What is called AUC(0-inf) is the area under the concentration-time curve extrapolated to infinity. High values mean more exposure, low ones less exposure. As a reminder, the AUC(0-t) is exposure summed from dosing to a finite time, without extrapolation to infinity. A higher AUC(0-t) goes with more exposure. As a reminder, the Cmax is the peak of the concentration-time curve. In general, MRT refers to a mean duration of stay, worked out from the concentration-time curve. A word on the Tmax: it is the time from dosing to the highest level. `CN1CC2c3ccccc3Oc3ccc(Cl)cc3C2C1` (stereo not shown) [ASPM, Asenapine maleate] registered an apparent permeability (Papp) at 1 h in series [1] (1 h) of 291 ± 26 ×10⁻⁶ cm/s. The compound also gave an apparent permeability (Papp) at 2 h in series [1] (2 h) of 231 ± 31 ×10⁻⁶ cm/s. The same compound had a Papp at 3 h in series [1] (3 h) of 206 ± 30 ×10⁻⁶ cm/s. Besides, in series [2], the drug release result is “more than 90%”. Moreover, in series [3] (marketed fast-dissolving sublingual tablet, ref 7 (printed at next sentence)), the bioavailability is 35%. Moreover, in series [3] (oral administration), the oral bioavailability is on record as under 2%. Moreover, the cells remaining viable entry in series [4] was “more than 80%”. The Locomotor counts in series [5] (1 h) was 121 ± 17*^$. Also, the Locomotor counts in series [5] (2 h) is recorded as 118 ± 18*^$. In addition, the Locomotor counts in series [5] (3 h) was 110 ± 15*^$. In series [6] (5 mg/kg), this compound gave a t1/2 of 25.52 ± 2.15 h. The same compound showed a half-life in series [6] (male, Sprague-Dawley, rat, plasma, po, 5 mg/kg) of 25.2 ± 2.15 h. In series [6] (setting [8]), the AUC(0-inf) worked out at 3640 ± 347 ng·h/mL, the AUC(0-t) was 2660 ± 221 ng·h/mL, the Cmax was determined as 131 ± 7.01 ng/mL and the MRT was determined as 36 ± 3.16 h. In series [6] (setting [8]), the time of peak concentration (Tmax) stood at 1 h and the k el is 7.53e-06 s⁻¹. Moreover, the cells remaining viable entry in series [7] was “more than 80%”.
